Earlier results on 1 compound are cited in patent publication US7521440B2, “Targeted oxidative therapeutic formulation” (Torquin, LLC, priority 2001, dated 2009).

The structures appear in SMILES notation.

In series [1] the test system is peroxide-sensitive E. coli. Conditions: infused into the blood of infected rabbits.
A further series deals with E. coli. Particulars: increasing peroxide concentration ex-vivo in rabbit or human blood.

As to `OO` [hydrogen peroxide, Hydrogen peroxide], in series [1], the bactericidal effect result is on record as “no bactericidal effect”. In the series with E. coli, the direct bactericidal activity result is given as “no evidence of direct bactericidal activity”.
